From publication PMC5686105, “The industrial anaerobe Clostridium acetobutylicum uses polyketides to regulate cellular differentiation” (Nature Communications, 2017) come the findings set out here.

The target in experiment [1] is T1, PKS (ca_c3355) (Clostridium acetobutylicum, UniProt Q97DW5). Put plainly: in vitro product assay by LC-MS; […] acyl loading by SDS-PAGE autoradiography. Format: biochemical. The conditions noted are these: 100 mM phosphate pH 7.0, 2 mM malonyl-CoA, 8 uM PKS, room temperature, 2 h; covalent acyl-S-enzyme intermediate seen with labelled compound (made in situ by MatB, pH 8.0, 25 °C).
T1 sequence (Q97DW5 1-1795): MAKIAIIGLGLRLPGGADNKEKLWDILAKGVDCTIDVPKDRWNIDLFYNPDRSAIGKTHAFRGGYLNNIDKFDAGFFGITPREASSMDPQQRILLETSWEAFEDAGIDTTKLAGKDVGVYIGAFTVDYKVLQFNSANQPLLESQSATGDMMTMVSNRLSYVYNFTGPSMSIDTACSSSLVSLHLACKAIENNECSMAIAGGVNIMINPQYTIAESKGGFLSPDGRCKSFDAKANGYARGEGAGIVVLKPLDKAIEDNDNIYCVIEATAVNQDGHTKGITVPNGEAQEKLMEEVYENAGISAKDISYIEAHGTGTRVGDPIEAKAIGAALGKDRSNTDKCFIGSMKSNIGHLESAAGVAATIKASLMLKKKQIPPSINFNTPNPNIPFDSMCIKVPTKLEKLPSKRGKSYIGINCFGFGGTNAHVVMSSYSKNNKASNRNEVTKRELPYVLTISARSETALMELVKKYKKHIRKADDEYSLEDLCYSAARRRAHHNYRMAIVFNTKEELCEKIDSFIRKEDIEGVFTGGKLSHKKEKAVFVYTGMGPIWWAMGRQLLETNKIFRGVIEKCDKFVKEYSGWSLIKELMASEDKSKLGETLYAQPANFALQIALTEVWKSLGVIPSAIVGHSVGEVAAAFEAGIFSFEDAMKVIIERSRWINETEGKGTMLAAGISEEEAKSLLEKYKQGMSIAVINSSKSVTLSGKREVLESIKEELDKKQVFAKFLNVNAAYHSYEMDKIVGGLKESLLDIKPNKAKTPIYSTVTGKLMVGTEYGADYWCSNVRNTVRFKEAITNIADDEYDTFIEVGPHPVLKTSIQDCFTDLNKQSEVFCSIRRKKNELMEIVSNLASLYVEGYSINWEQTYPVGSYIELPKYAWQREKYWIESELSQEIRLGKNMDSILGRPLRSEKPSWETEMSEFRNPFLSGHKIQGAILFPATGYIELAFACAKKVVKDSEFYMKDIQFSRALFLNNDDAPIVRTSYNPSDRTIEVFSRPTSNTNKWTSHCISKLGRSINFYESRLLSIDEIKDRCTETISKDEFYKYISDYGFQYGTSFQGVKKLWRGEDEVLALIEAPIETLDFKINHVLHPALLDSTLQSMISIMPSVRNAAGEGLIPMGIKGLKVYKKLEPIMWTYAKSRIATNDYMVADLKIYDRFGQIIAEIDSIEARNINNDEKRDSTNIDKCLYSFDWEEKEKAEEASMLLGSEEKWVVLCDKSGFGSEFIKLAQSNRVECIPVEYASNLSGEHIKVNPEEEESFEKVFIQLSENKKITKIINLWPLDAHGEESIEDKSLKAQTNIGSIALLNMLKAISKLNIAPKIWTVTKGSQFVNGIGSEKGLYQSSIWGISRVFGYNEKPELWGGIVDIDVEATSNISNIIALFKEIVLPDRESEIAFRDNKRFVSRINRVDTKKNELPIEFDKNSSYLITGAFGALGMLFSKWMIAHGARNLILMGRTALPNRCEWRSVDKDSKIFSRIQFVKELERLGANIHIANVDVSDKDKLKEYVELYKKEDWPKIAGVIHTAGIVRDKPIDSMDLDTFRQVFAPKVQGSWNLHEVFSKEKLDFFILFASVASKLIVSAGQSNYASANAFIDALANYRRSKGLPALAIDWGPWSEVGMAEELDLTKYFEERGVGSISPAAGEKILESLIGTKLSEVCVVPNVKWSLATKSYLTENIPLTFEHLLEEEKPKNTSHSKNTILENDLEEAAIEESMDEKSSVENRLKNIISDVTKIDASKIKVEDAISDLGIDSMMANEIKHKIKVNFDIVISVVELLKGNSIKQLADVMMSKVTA

The target in experiment [2] is T1, PKS (ca_c3355). Put plainly: in vitro product assay by LC-MS. Type of experiment: biochemical. The conditions noted are these: 100 mM phosphate pH 7.0, 2 mM malonyl-CoA, 2 mM NADPH, 8 uM PKS, room temperature, 2 h; KR domain reductant.

For `CC(C)(COP(=O)(O)OP(=O)(O)OC[C@H]1O[C@@H](n2cnc3c(N)ncnc32)[C@H](O)[C@@H]1OP(=O)(O)O)[C@@H](O)C(=O)NCCC(=O)NCCSC(=O)CC(=O)O` [malonyl-CoA], on PKS (ca_c3355) [1], the “in vitro product assay by LC-MS; 14C acyl loading by SDS-PAGE autoradiography” value is “in vitro reconstitution of the activity of PKS with malonyl-CoA showed a dominant product”.
On to `NC(=O)C1=CN([C@@H]2O[C@H](COP(=O)(O)OP(=O)(O)OC[C@H]3O[C@@H](n4cnc5c(N)ncnc54)[C@H](OP(=O)(O)O)[C@@H]3O)[C@@H](O)[C@H]2O)C=CC1` [NADPH], for which the “in vitro product assay by LC-MS” value on PKS (ca_c3355) [2] is listed as “Addition of NADPH to this reaction enabled function of the KR domain”.
